Data from patent US10118902B2 (Sanford Burnham Prebys Medical Discovery Institute, priority 2014, dated 2018).

Target: neurotensin receptor 1 (NTR1) (Homo sapiens (Human), UniProt P30989)
Assay: NTR1 dose response, high-content imaging beta-arrestin-GFP assay in NTR1-U2OS cells
Assay type: cell-based
Details: read-out: EC50

neurotensin receptor 1 (NTR1), sequence (P30989 whole entry, species assumed): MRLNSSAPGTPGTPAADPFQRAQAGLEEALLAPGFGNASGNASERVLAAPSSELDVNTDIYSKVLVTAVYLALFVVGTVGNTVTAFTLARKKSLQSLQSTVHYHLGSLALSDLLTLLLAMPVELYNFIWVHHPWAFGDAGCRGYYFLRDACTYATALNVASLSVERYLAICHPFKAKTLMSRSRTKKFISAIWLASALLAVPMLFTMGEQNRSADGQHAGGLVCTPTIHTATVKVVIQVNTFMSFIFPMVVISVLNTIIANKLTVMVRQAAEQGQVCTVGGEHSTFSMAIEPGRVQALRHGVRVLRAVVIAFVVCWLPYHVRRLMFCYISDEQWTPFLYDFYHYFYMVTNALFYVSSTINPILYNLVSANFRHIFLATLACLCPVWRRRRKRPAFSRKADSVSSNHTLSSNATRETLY

EC50 [µM]	Compound
0.5 to 2	COc1ccccc1C1CCN(c2nc(C3CC3)nc3ccc(N4CC[C@H](O)C4)cc23)CC1 [Example 82, (S)-1-(2-cyclopropyl-4-(4-(2-methoxyphenyl)piperidin-1-yl)quinazolin-6-yl)pyrrolidin-3-ol]
> 10	COCCN(C)c1ccc2nc(C3CCCC3)nc(N3CCC(c4ccccc4OC)CC3)c2c1 [Example 39, {2-cyclopentyl-4-[4-(2-methoxy-phenyl)-piperidin-1-yl]-quinazolin-6-yl}-(2-methoxy-ethyl)-methyl-amine]
0.5 to 2	COc1ccc(F)cc1C1CCN(c2nc(C3CC3)nc3ccc(N(C)CCO)cc23)CC1 [Example 109, 2-({2-cyclopropyl-4-[4-(5-fluoro-2-methoxy-phenyl)-piperidin-1-yl]-quinazolin-6-yl}-methyl-amino)-ethanol]
> 10	COc1ccccc1N1CC2(C1)CN(c1nc(C3CC3)nc3ccc(N(C)CCN4CCOCC4)cc13)C2 [Example 101, {2-cyclopropyl-4-[6-(2-methoxy-phenyl)-2,6-diaza-spiro [3.3]hept-2-yl]-quinazolin-6-yl}-methyl-(2-morpholin-4-yl-ethyl)-amine]
0.5 to 2	COc1ccccc1C1CCN(c2nc(C3(C(F)(F)F)CCC3)nc3ccc(N(C)CCO)cc23)CC1 [Example 63, 2-{[4-[4-(2-methoxy-phenyl)-piperidin-1-yl]-2-(1-trifluoromethyl-cyclobutyl)-quinazolin-6-yl]-methyl-amino}-ethanol]
0.5 to 2	CN(C)c1ccccc1C1CCN(c2nc(C3(C(F)(F)F)CCCC3)nc3ccc(N(C)CCO)cc23)CC1 [Example 57, 2-{[4-[4-(2-dimethylamino-phenyl)-piperidin-1-yl]-2-(1-trifluoromethyl-cyclopentyl)-quinazolin-6-yl]-methyl-amino}-ethanol]
> 10	CCCN(C)c1cc2c(N3CCC(c4cc(F)ccc4OC)CC3)nc(C3CC3)nc2cc1C [Example 123, {2-cyclopropyl-4-[4-(5-fluoro-2-methoxy-phenyl)-piperidin-1-yl]-7-methyl-quinazolin-6-yl}-methyl-propyl-amine]
0.5 to 2	COc1ccccc1C1CCN(c2nc(C3CC3)nc3ccc(N(C)CCO)c(C)c23)CC1 [Example 126, 2-({2-cyclopropyl-4-[4-(2-methoxy-phenyl)-piperidin-1-yl]-5-methyl-quinazolin-6-yl}-methyl-amino)-ethanol]
0.5 to 2	COc1nccnc1C1CCN(c2nc(C3(C)CC3)nc3ccc(N(C)CCO)cc23)CC1 [Example 205, 2-{[4-[4-(3-Methoxy-pyrazin-2-yl)-piperidin-1-yl]-2-(1-methyl-cyclopropyl)-quinazolin-6-yl]-methyl-amino}-ethanol]
0.5 to 2	COc1ccccc1C1CCN(c2nc(C3(F)CC3)nc3ccc(N4CC[C@@H](O)C4)cc23)CC1 [Example 178, (R)-1-{2-(1-Fluoro-cyclopropyl)-4-[4-(2-methoxy-phenyl)-piperidin-1-yl]-quinazolin-6-yl}-pyrrolidin-3-ol]
2 to 10	COc1ccccc1C1CCN(c2nc(C3(C)CC3)nc3ccc(N(C)CCN4CCOCC4)cc23)CC1 [Example 34, 4-(4-(2-methoxyphenyl)piperidin-1-yl)-N-methyl-2-(1-methylcyclopropyl)-N-(2-morpholinoethyl) quinazolin-6-amine]
> 10	CN(C)c1ccccc1C1CCN(c2nc(C3(C)CCC3)nc3ccc(N(C)CCN4CCOCC4)cc23)CC1 [Example 67, [4-[4-(2-dimethylamino-phenyl)-piperidin-1-yl]-2-(1-methyl-cyclobutyl)-quinazolin-6-yl]-methyl-(2-morpholin-4-yl-ethyl)-amine]
2 to 10	CN(C)c1ccccc1C1CCN(c2nc(C3(C)CCCC3)nc3ccc(N(C)CCN4CCOCC4)cc23)CC1 [Example 54, [4-[4-(2-dimethylamino-phenyl)-piperidin-1-yl]-2-(1-methyl-cyclopentyl)-quinazolin-6-yl]-methyl-(2-morpholin-4-yl-ethyl)-amine]
0.5 to 2	COc1ccccc1C1CCN(c2nc(C3CC3)nc3cc(Cl)c(N(C)CCO)cc23)CC1 [Example 107, 2-({7-chloro-2-cyclopropyl-4-[4-(2-methoxy-phenyl)-piperidin-1-yl]-quinazolin-6-yl}-methyl-amino)-ethanol]
2 to 10	COc1ccccc1C1CCN(c2nc(C3(C(F)(F)F)CCCC3)nc3ccc(N(C)CCN4CCOCC4)cc23)CC1 [Example 56, [4-[4-(2-methoxy-phenyl)-piperidin-1-yl]-2-(1-trifluoromethyl-cyclopentyl)-quinazolin-6-yl]-methyl-(2-morpholin-4-yl-ethyl)-amine]
2 to 10	COc1ccc(F)cc1C1CCN(c2nc(C3CC3)nc3cc(C)c(N(C)CCO)cc23)CC1 [Example 115, 2-({2-cyclopropyl-4-[4-(5-fluoro-2-methoxy-phenyl)-piperidin-1-yl]-7-methyl-quinazolin-6-yl}-methyl-amino)-ethanol]
2 to 10	COc1ccccc1C1CCN(c2nc(C3CC3)nc3ccc(N4CC[C@@H](N(C)C)C4)cc23)CC1 (stereo in doubt) [Example 91, (1-{2-cyclopropyl-4-[4-(2-methoxy-phenyl)-piperidin-1-yl]-quinazolin-6-yl}-pyrrolidin-3-yl)-dimethyl-amine]
< 0.5	COc1ccccc1C1CCN(c2nc(C3CC3)nc3c(Cl)cc(N(C)CCO)cc23)CC1 [Example 130, 2-({8-chloro-2-cyclopropyl-4-[4-(2-methoxy-phenyl)-piperidin-1-yl]-quinazolin-6-yl}-methyl-amino)-ethanol]
2 to 10	CN(CCOCCF)c1ccc2nc(C3(F)CC3)nc(N3CCC(c4ccccc4OCCF)CC3)c2c1 [Example 222, (2-(1-Fluoro-cyclopropyl)-4-{4-[2-(2-fluoro-ethoxy)-phenyl]-piperidin-1-yl}-quinazolin-6-yl)-[2-(2-fluoro-ethoxy)-ethyl]-methyl-amine]
0.5 to 2	COc1cc(F)ccc1C1CCN(c2nc(C3CC3)nc3cc(F)c(N(C)CCO)cc23)CC1 [Example 110, 2-({2-cyclopropyl-7-fluoro-4-[4-(4-fluoro-2-methoxy-phenyl)-piperidin-1-yl]-quinazolin-6-yl}-methyl-amino)-ethanol]
0.5 to 2	COc1ccccc1C1CCN(c2nc(C3(F)CCC3)nc3c(Cl)cc(N(C)CCO)cc23)CC1 [Example 181, 2-((8-chloro-2-(1-fluorocyclobutyl)-4-(4-(2-methoxyphenyl)piperidin-1-yl)quinazolin-6-yl)(methyl)amino)ethanol]
0.5 to 2	COc1cc(F)ccc1C1CCN(c2nc(C3CC3)nc3ccc(N(C)CCO)cc23)CC1 [Example 108, 2-({2-cyclopropyl-4-[4-(4-fluoro-2-methoxy-phenyl)-piperidin-1-yl]-quinazolin-6-yl}-methyl-amino)-ethanol]
> 10	CCCN(C)c1ccc2nc(C3CC3)nc(NC3CCCC3N(C)c3ccccc3OC)c2c1 (stereo not drawn) [Example 152, 2-cyclopropyl-N4-{2-[(2-methoxy-phenyl)-methyl-amino]-cyclopentyl}-N6-methyl-N6-propyl-quinazoline-4,6-diamine]
0.5 to 2	CN(CCO)c1ccc2nc(C3CC3)nc(N3CCC(c4ccccc4N4CCC4)CC3)c2c1 [Example 6, 2-({4-[4-(2-azetidin-1-yl-phenyl)-piperidin-1-yl]-2-cyclopropyl-quinazolin-6-yl}-methyl-amino)-ethanol]
